The numbers were not newly measured in patent US20050245504A1, “Treatment of diseases with combinations of alpha 7 Nicotinic Acetylcholine Receptor agonists and other compounds” (priority 2002, published 2005), which cites them from elsewhere.

One data set deals with α7 nAChR (Homo sapiens, UniProt P36544).
In a further data set the target is T1, 5HT3R (Homo sapiens, UniProt P46098).
T1 sequence (P46098 24-478): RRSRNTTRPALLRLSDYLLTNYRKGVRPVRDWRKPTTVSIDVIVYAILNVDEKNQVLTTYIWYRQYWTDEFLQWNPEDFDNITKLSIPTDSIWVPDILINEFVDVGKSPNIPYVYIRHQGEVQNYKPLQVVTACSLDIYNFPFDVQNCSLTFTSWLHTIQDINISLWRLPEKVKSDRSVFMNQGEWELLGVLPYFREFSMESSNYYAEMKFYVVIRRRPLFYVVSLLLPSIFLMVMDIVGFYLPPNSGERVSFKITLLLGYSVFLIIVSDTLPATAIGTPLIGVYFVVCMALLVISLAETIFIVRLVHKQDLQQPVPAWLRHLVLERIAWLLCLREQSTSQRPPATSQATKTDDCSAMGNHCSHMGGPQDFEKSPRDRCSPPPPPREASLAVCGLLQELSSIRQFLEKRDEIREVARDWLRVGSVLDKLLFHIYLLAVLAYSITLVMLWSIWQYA

Like-named read-outs stand apart in the source and are kept apart here.

Chain of α7 nAChR (P36544 23-502): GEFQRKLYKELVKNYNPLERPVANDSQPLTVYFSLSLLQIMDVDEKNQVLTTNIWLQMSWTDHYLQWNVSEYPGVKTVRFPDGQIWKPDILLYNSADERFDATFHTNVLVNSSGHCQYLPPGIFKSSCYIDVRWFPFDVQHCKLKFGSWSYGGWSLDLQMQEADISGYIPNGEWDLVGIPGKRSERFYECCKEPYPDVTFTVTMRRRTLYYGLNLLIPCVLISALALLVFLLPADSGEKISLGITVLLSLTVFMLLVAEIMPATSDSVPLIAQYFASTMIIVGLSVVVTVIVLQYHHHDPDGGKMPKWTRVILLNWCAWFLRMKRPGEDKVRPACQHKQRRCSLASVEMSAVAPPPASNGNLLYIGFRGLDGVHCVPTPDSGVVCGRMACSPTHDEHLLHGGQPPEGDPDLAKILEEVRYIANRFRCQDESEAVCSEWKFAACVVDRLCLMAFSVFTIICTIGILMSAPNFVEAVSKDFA

Consider `CN1CCCC1c1cccnc1` (stereo not shown) [nicotine], for which the cognition and attention entry (human, in vivo) was “increases cognition and attention”.

For `Cc1nccn1CC1CCc2c(c3ccccc3n2C)C1=O` (stereo not shown) [Ondansetron], the “activity at the α7 nAChR” value on α7 nAChR is reported as “little activity”.

Turning to `Cc1cc([C@@H]2CCCN2C)on1` [ABT-418], the cognition and attention entry (clinical trials of Alzheimer's disease and attention-deficit disorders) was “improves cognition and attention”.

On to `COc1ccc(/C=C2\CCCN=C2c2cccnc2)c(OC)c1` [GTS-21], for which, at 5HT3R, the “activity at the 5HT3R” value is reported as “little activity”.
